Patent US20070149404A1, “Microbicidal compositions” (BASF AKTIENGESELLSCHAFT, priority 2003, published 2007)

What was measured:
Micrococcus luteus = experiment: Intrinsic activity, microtitre plate method, ML; assay type: cell-based; design: key: rating 0 = no activity to 5 = biostatic, may be biocide
Experimental: (§1) The chemistries were tested for their activity against a range of organisms via a microtitre plate method. The test organisms were: • ML—Micrococcus luteus • SA—Staphylococcus aureus • EC—Escherichia coli • PA—Pseudomonas aeruginosa • CF—Citrobacter freundii • PM—Proteus mirabilis • CA—Candida albicans • SC—Saccharomyces cerevisiae • AN—Aspergillus niger • PF—Penicillium funiculosum • AA—Alternaria alternata
(§2) Using the following rating scale: • 0=no activity • 1=minimal inhibition • 2=inhibition • 3=clear inhibition • 4=clear inhibition biostatic, may be biocide activity • 5=biostatic, may be biocide activity
(§3) Readings of 4 and possibly 3 were considered to be valid for biocidal applications.

Staphylococcus aureus = experiment: Intrinsic activity, microtitre plate method, SA; assay type: cell-based; design: key: 0 = no activity to 5 = biostatic, may be biocide activity
Experimental: as §1, §2, §3

Escherichia coli = experiment: Intrinsic activity, microtitre plate method, EC; assay type: cell-based; design: key: rating 0 = no activity to 5 = biostatic, may be biocide
Experimental: as §1, §2, §3

Pseudomonas aeruginosa = experiment: Intrinsic activity, microtitre plate method, PA; assay type: cell-based; design: key: rating 0 = no activity to 5 = biostatic, may be biocide
Experimental: as §1, §2, §3

Citrobacter freundii = experiment: Intrinsic activity, microtitre plate method, CF; assay type: cell-based; design: key: rating 0 = no activity to 5 = biostatic, may be biocide
Experimental: as §1, §2, §3

Proteus mirabilis = experiment: Intrinsic activity, microtitre plate method, PM; assay type: cell-based; design: key: rating 0 = no activity to 5 = biostatic, may be biocide
Experimental: as §1, §2, §3

Bacteria = experiment: Intrinsic activity, microtitre plate method, mean score over bacteria; assay type: cell-based, ML, SA, EC, PA, CF, PM; settings: performance against organisms/no of organisms, 0 to <3 poor, >3 inhibition, >4 biostasis, biocidal activity
Experimental: as §1, §2, §3

Candida albicans = experiment: Intrinsic activity, microtitre plate method, CA; assay type: cell-based; design: key: rating 0 = no activity to 5 = biostatic, may be biocide
Experimental: as §1, §2, §3

Saccharomyces cerevisiae = experiment: Intrinsic activity, microtitre plate method, SC; assay type: cell-based; design: key: rating 0 = no activity to 5 = biostatic, may be biocide
Experimental: as §1, §2, §3

Aspergillus niger = experiment: Intrinsic activity, microtitre plate method, AN; assay type: cell-based; design: key: rating 0 = no activity to 5 = biostatic, may be biocide
Experimental: as §1, §2, §3

Penicillium funiculosum = experiment: Intrinsic activity, microtitre plate method, PF; assay type: cell-based; design: key: rating 0 = no activity to 5 = biostatic, may be biocide
Experimental: as §1, §2, §3

Alternaria alternata = experiment: Intrinsic activity, microtitre plate method, AA; assay type: cell-based; design: key: rating 0 = no activity to 5 = biostatic, may be biocide
Experimental: as §1, §2, §3

Fungi [1] = experiment: Intrinsic activity, microtitre plate method, mean score over fungi; assay type: cell-based, CA, SC, AN, PF, AA; settings: performance against organisms/no of organisms, 0 to <3 poor, >3 inhibition, >4 biostasis, biocidal activity
Experimental: as §1, §2, §3

[2] = Solubility in water at room temperature
algae = experiment: Efficacy against algal growth on painted plaster surface (BBA MOAT 33); assay type: cell-based; settings: 0.5% in paint; for MEAN ALGAL GROWTH RATING 28 days / MEAN ALGAL GROWTH RATING 56 days / % Improved after 56 days (algal growth): painted plaster; for MEAN ALGAL GROWTH RATING 28 days / MEAN ALGAL GROWTH RATING 56 days: leached 72 hours, mean of ratings 0-5; for MEAN ALGAL GROWTH RATING 28 days: 28 days after inoculation; for MEAN ALGAL GROWTH RATING 56 days: 56 days after inoculation; for % Improved after 56 days (algal growth): versus unpreserved paint
Experimental: (§4) Testing was performed according to the BS3900 G6 and BBA MOAT 33 methods for evaluation versus fungi and algae, respectively. The methods involve painting a substrate panel with the coating and leaching under running water for 72 hours. The substrates are incubated for 56 days after being inoculated with fungi or algae. Performance is judged by comparing with suitable control samples ie without biocide, a positive control and for fungi with substrate panels that have not been leached.
(§5) Performance rating on painted test substrates (Score of 0, 1 and 2 is considered as a pass) • 0=no growth • 1=trace of growth • 2=growth on 1-10% of test face • 3=growth on 10-30% of test face • 4=growth on 30-70% of test face
(§6) 5=growth on 70-100% of test face.

fungi [3] = experiment: Efficacy against fungal growth on painted plaster surface (BS3900 G6); assay type: cell-based; settings: 0.5% in paint; for Improvement against fungal growth on the plaster surface: as applied or after leaching; for MEAN FUNGAL GROWTH RATING - PLASTER SUBSTRATE 28 days leached / MEAN FUNGAL GROWTH RATING - PLASTER SUBSTRATE 56 days leached: constant running water for 72 hours; for MEAN FUNGAL GROWTH RATING - PLASTER SUBSTRATE 28 days leached / MEAN FUNGAL GROWTH RATING - PLASTER SUBSTRATE 56 days leached / MEAN FUNGAL GROWTH RATING - PLASTER SUBSTRATE 28 days as applied / MEAN FUNGAL GROWTH RATING - PLASTER SUBSTRATE 56 days as applied: mean of ratings 0-5; for % Improved After 56 days leached (fungal, plaster): leached 72 hours; for % Improved After 56 days leached (fungal, plaster) / % Improved After 56 days as applied (fungal, plaster): versus unpreserved paint; for MEAN FUNGAL GROWTH RATING - PLASTER SUBSTRATE 28 days as applied / MEAN FUNGAL GROWTH RATING - PLASTER SUBSTRATE 56 days as applied: no leaching with water; for % Improved After 56 days as applied (fungal, plaster): no leaching
Experimental: Testing was performed according to the BS3900 G6 and BBA MOAT 33 methods for evaluation versus fungi and algae, respectively. The methods involve painting a substrate panel with the coating and leaching under running water for 72 hours. […] Performance is judged by comparing with suitable control samples ie without biocide, a positive control and for fungi with substrate panels that have not been leached.
as §5, §6

fungi [4] = experiment: Efficacy against fungal growth on painted wooden surface (BS3900 G6); assay type: cell-based; settings: 0.5% in paint
Experimental: as §4, §5, §6

test bacteria and fungi = experiment: Intrinsic activity against bacteria and fungi, microtitre plate method, summary in words; assay type: cell-based; settings: at both concentrations (1000 and 500 ppm a.i.)
Experimental: as §1, §2, §3

| Molecule | ML rating (Micrococcus luteus; 500 ppm a.i.) | ML rating (Micrococcus luteus; 1000 ppm a.i.) | SA rating (Staphylococcus aureus; 500 ppm a.i.) | SA rating (Staphylococcus aureus; 1000 ppm a.i.) | EC rating (Escherichia coli; 500 ppm a.i.) | EC rating (Escherichia coli; 1000 ppm a.i.) | PA rating (Pseudomonas aeruginosa; 500 ppm a.i.) | PA rating (Pseudomonas aeruginosa; 1000 ppm a.i.) | CF rating (Citrobacter freundii; 500 ppm a.i.) | CF rating (Citrobacter freundii; 1000 ppm a.i.) | PM rating (Proteus mirabilis; 500 ppm a.i.) | PM rating (Proteus mirabilis; 1000 ppm a.i.) | Bacteria Mean Score (Bacteria; 500 ppm a.i.) | Bacteria Mean Score (Bacteria; 1000 ppm a.i.) | CA rating (Candida albicans; 500 ppm a.i.) | CA rating (Candida albicans; 1000 ppm a.i.) | SC rating (Saccharomyces cerevisiae; 500 ppm a.i.) | SC rating (Saccharomyces cerevisiae; 1000 ppm a.i.) | AN rating (Aspergillus niger; 500 ppm a.i.) | AN rating (Aspergillus niger; 1000 ppm a.i.) | also measured |
| --- | --- | --- | --- | --- | --- | --- | --- | --- | --- | --- | --- | --- | --- | --- | --- | --- | --- | --- | --- | --- | --- |
| O=C(O)COc1ccc(Cl)cc1Cl [2,4-D, 2,4-Dichlorphenoxy acetic acid] | 2 | 5 | 3 | 3 | 0 | 3 | 0 | 3 | 0 | 5 | 1 | 2 | 1.0 | 3.5 | 5 | 5 | 1 | 3 | 0 | 5 | PF rating (Penicillium funiculosum; 500 ppm a.i.): 3; PF rating (Penicillium funiculosum; 1000 ppm a.i.): 5; AA rating (Alternaria alternata; 500 ppm a.i.): 5; AA rating (Alternaria alternata; 1000 ppm a.i.): 5; Fungi Mean Score (Fungi [1]; 500 ppm a.i.): 2.8; Fungi Mean Score (Fungi [1]; 1000 ppm a.i.): 4.6; Aq. Solubility (ppm) [2]: 600 ppm |
| Fc1ccc([C@@]2(Cn3cncn3)O[C@H]2c2ccccc2Cl)cc1 [Epoxiconazole, cis-3-(2-Chlorphenyl)-2-(4-fluorphenyl)-2-(triazol-1-ylmethyl)-oxiran] | 0 | 0 | 0 | 0 | 0 | 0 | 0 | 0 | 0 | 0 | 0 | 0 | 0.0 | 0.0 | 5 | 5 | 5 | 5 | 5 | 5 | MEAN ALGAL GROWTH RATING 28 days (algae): 2.5; MEAN ALGAL GROWTH RATING 56 days (algae): 2.5; % Improved after 56 days (algal growth) (algae): 37.5%; Improvement against algal growth on the plaster surface (algae): exhibited an improvement; Improvement against fungal growth on the plaster surface (fungi [3]): exhibited an improvement; MEAN FUNGAL GROWTH RATING - PLASTER SUBSTRATE 28 days leached (fungi [3]): 1.5; MEAN FUNGAL GROWTH RATING - PLASTER SUBSTRATE 56 days leached (fungi [3]): 2.5; % Improved After 56 days leached (fungal, plaster) (fungi [3]): 29%; MEAN FUNGAL GROWTH RATING - PLASTER SUBSTRATE 28 days as applied (fungi [3]): 3.5; MEAN FUNGAL GROWTH RATING - PLASTER SUBSTRATE 56 days as applied (fungi [3]): 3.5; % Improved After 56 days as applied (fungal, plaster) (fungi [3]): 30%; Improvement against fungal growth on the wood surface (fungi [4]): only showed marginal improvement; PF rating (Penicillium funiculosum; 500 ppm a.i.): 3; PF rating (Penicillium funiculosum; 1000 ppm a.i.): 3; AA rating (Alternaria alternata; 500 ppm a.i.): 5; AA rating (Alternaria alternata; 1000 ppm a.i.): 5; Fungi Mean Score (Fungi [1]; 500 ppm a.i.): 4.6; Fungi Mean Score (Fungi [1]; 1000 ppm a.i.): 4.6; Spectrum of activity (test bacteria and fungi): only display antifungal activity |
| CC(Cc1ccc(C(C)(C)C)cc1)CN1C[C@@H](C)O[C@@H](C)C1 (stereo partly drawn) [Fenpropimorph, 4-[2-Methyl-3-(p-tert.butyl-phenyl)-propyl]-2,6-cis-dimethylmorpholin] | 0 | 2 | 0 | 0 | 0 | 0 | 0 | 0 | 0 | 0 | 0 | 0 | 0.0 | 0.3 | 5 | 5 | 5 | 5 | 5 | 5 | MEAN ALGAL GROWTH RATING 28 days (algae): 2 (2=growth on 1-10% of test face); MEAN ALGAL GROWTH RATING 56 days (algae): 3 (3=growth on 10-30% of test face); % Improved after 56 days (algal growth) (algae): 25.0%; Improvement against algal growth on the plaster surface (algae): exhibited an improvement; Improvement against fungal growth on the plaster surface (fungi [3]): exhibited an improvement; MEAN FUNGAL GROWTH RATING - PLASTER SUBSTRATE 28 days leached (fungi [3]): 3 (3=growth on 10-30% of test face); MEAN FUNGAL GROWTH RATING - PLASTER SUBSTRATE 56 days leached (fungi [3]): 3 (3=growth on 10-30% of test face); % Improved After 56 days leached (fungal, plaster) (fungi [3]): 14%; MEAN FUNGAL GROWTH RATING - PLASTER SUBSTRATE 28 days as applied (fungi [3]): 4 (4=growth on 30-70% of test face); MEAN FUNGAL GROWTH RATING - PLASTER SUBSTRATE 56 days as applied (fungi [3]): 4 (4=growth on 30-70% of test face); % Improved After 56 days as applied (fungal, plaster) (fungi [3]): 20%; Improvement against fungal growth on the wood surface (fungi [4]): only showed marginal improvement; PF rating (Penicillium funiculosum; 500 ppm a.i.): 5; PF rating (Penicillium funiculosum; 1000 ppm a.i.): 5; AA rating (Alternaria alternata; 500 ppm a.i.): 5; AA rating (Alternaria alternata; 1000 ppm a.i.): 5; Fungi Mean Score (Fungi [1]; 500 ppm a.i.): 5.0; Fungi Mean Score (Fungi [1]; 1000 ppm a.i.): 5.0; Spectrum of activity (test bacteria and fungi): only display antifungal activity |
| O=C(Nc1ccc(F)cc1)c1cccc(Oc2cccc(C(F)(F)F)c2)n1 [Picolinafen] | – | – | – | – | – | – | – | – | – | – | – | – | – | – | – | – | – | – | – | – | MEAN ALGAL GROWTH RATING 28 days (algae): 1.5; MEAN ALGAL GROWTH RATING 56 days (algae): 2.5; % Improved after 56 days (algal growth) (algae): 37.5%; Improvement against algal growth on the plaster surface (algae): exhibited an improvement; MEAN FUNGAL GROWTH RATING - PLASTER SUBSTRATE 28 days leached (fungi [3]): 3 (3=growth on 10-30% of test face); MEAN FUNGAL GROWTH RATING - PLASTER SUBSTRATE 56 days leached (fungi [3]): 3.5; % Improved After 56 days leached (fungal, plaster) (fungi [3]): 0%; MEAN FUNGAL GROWTH RATING - PLASTER SUBSTRATE 28 days as applied (fungi [3]): 4.5; MEAN FUNGAL GROWTH RATING - PLASTER SUBSTRATE 56 days as applied (fungi [3]): 5 (5=growth on 70-100% of test face); % Improved After 56 days as applied (fungal, plaster) (fungi [3]): 0%; Improvement against fungal growth on the wood surface (fungi [4]): only showed marginal improvement; Aq. Solubility (ppm) [2]: 0.004 ppm |
| Metiram | – | – | – | – | – | – | – | – | – | – | – | – | – | – | – | – | – | – | – | – | Aq. Solubility (ppm) [2]: 2.7 ppm |
